{"source": "paper PMC9510668", "about": "(Frontiers in Pharmacology, 2022)", "origin": "cited, not measured here", "key": {"[1]": {"conditions": "human; ref Heath et al., 2010; cited from earlier work"}, "VEGFR": {"tested_on": "VEGFR", "conditions": "ref Heath et al., 2010; cited from earlier work"}, "[2]": {"set-up": "method as in Röhss and Hedenström, 2002", "conditions": "40 mg OD orally for 5 days; ref Röhss and Hedenström, 2002; cited from earlier work"}, "[3]": {"conditions": "cited from earlier work"}, "[4]": {"conditions": "cited from earlier work", "remark": "listed apart in the source"}, "UGT1A1": {"tested_on": "UGT1A1", "set-up": "method as in ref [2] (a number printed in a supplementary file, which may have a reference list of its own: not looked up in the article's list)", "conditions": "ref [2]; cited from earlier work"}, "[5]": {"conditions": "healthy human, mean, cited from earlier work"}, "CYP3A4 [6]": {"tested_on": "CYP3A4", "conditions": "read-out: Ki CYP3A4; ketoconazole; ref [1]; cited from earlier work"}, "OATP1B1": {"tested_on": "OATP1B1", "conditions": "lapatinib; ref [8]; cited from earlier work"}, "P-gp": {"tested_on": "P-gp", "conditions": "lapatinib; ref [8]; cited from earlier work"}, "BCRP1": {"biological_target": "BCRP1", "set-up": "method as in ref [8] (a number printed in a supplementary file, which may have a reference list of its own: not looked up in the article's list)", "conditions": "lapatinib; ref [8]; cited from earlier work"}, "CYP3A4 [7]": {"tested_on": "CYP3A4", "set-up": "method as in ref [6] (a number printed in a supplementary file, which may have a reference list of its own: not looked up in the article's list)", "conditions": "ref [6]; cited from earlier work"}, "CYP3A5": {"tested_on": "CYP3A5", "set-up": "method as in ref [6] (a number printed in a supplementary file, which may have a reference list of its own: not looked up in the article's list)", "conditions": "ref [6]; cited from earlier work"}}, "note": "Where two headings read alike, the source gives them in different places."}
{"smiles": "Cc1c2ccc(N(C)c3ccnc(Nc4ccc(CO)c(S(N)(=O)=O)c4)n3)cc2nn1C", "note": "[GSK1268997]", "values": [{"measurement": "Systemic exposure relative to unchanged PAZ", "setting": "[1]", "result": "about 2%"}, {"measurement": "Potency towards VEGFR in comparison to PAZ", "setting": "VEGFR", "result": "equal potency"}]}
{"smiles": "COc1ccc2nc([S@@+]([O-])Cc3ncc(C)c(OC)c3C)[nH]c2c1", "note": "[esomeprazole]", "values": [{"measurement": "Human intragastric mean 24-h pH", "setting": "[2]", "result": 4.78}]}
{"smiles": "CC(=O)N1CCN(c2ccc(OCC3COC(Cn4ccnc4)(c4ccc(Cl)cc4Cl)O3)cc2)CC1", "note": "(stereo not drawn) [ketoconazole]", "values": [{"measurement": "Solubility in buffer", "setting": "[3]; @pH6.5, ref [1]", "result": 6.93, "unit": "µg/mL"}, {"measurement": "Log (@pH7.4), lipophilicity", "setting": "[3]; pH7.4, ref [1]", "result": 2.67}, {"measurement": "Rbp", "setting": "[4]; ketoconazole, ref [1]", "result": 0.59}, {"measurement": "fup", "setting": "[4]; ketoconazole, ref [1]", "result": "[…]"}, {"measurement": "Km", "setting": "UGT1A1", "result": 22.3, "unit": "µM"}, {"measurement": "UGT1A1 Vmax", "setting": "UGT1A1", "result": 9.37, "unit": "pmol/min/pmol"}, {"measurement": "AUC0-48, Observed", "setting": "[5]; ketoconazole", "result": 40600, "unit": "ng·h/mL"}, {"measurement": "Cmax, Observed", "setting": "[5]; ketoconazole", "result": 6200, "unit": "ng/mL"}, {"measurement": "Tmax, Observed", "setting": "[5]; ketoconazole", "result": "[…]"}, {"measurement": "Ki", "setting": "CYP3A4 [6]", "result": "[…]"}]}
{"smiles": "CS(=O)(=O)CCNCc1ccc(-c2ccc3ncnc(Nc4ccc(OCc5cccc(F)c5)c(Cl)c4)c3c2)o1", "note": "[lapatinib]", "values": [{"measurement": "Water Solubility in FaSSIF pH=6.5", "setting": "[3]; ref [3]", "result": 5.4, "unit": "μg/mL"}, {"measurement": "fup", "setting": "[4]; lapatinib, ref [4]", "result": 0.01}, {"measurement": "Rbp", "setting": "[4]; lapatinib, ref [5]", "result": 0.84}, {"measurement": "Ki", "setting": "OATP1B1", "result": 4, "unit": "µM"}, {"measurement": "Ki", "setting": "P-gp", "result": 3.9, "unit": "µM"}, {"measurement": "Ki", "setting": "BCRP1", "result": 0.025, "unit": "µM"}, {"measurement": "CPY3A4 CLint", "setting": "CYP3A4 [7]", "result": 105, "unit": "µL/min/nmol"}, {"measurement": "CPY3A5 CLint", "setting": "CYP3A5", "result": 5, "unit": "µL/min/nmol"}, {"measurement": "AUC0-48, Observed", "setting": "[5]; lapatinib", "result": 5328.9, "unit": "ng·h/mL"}, {"measurement": "Cmax, Observed", "setting": "[5]; lapatinib", "result": 311.0, "unit": "ng/mL"}, {"measurement": "Tmax, Observed", "setting": "[5]; lapatinib", "result": 3, "unit": "h"}]}
